Data set [1] concerns Herpes simplex virus. The conditions noted are these: Masakatsu et al. 1977; cited from earlier work.
The test system of data set [2] is Vaccinia virus. The conditions noted are these: Masakatsu et al. 1977, cited from earlier work.
Data set [3] relates to Arabidopsis wild-type plants (Col-0) detached leaves, gene transcription. Description: Differential gene expression study (RNA sequencing) in detached senescent leaves. The conditions noted are these: 10 μM. The format is in vivo. Here is the method:
For isolation of total RNA, Arabidopsis wild-type plants (Col-0) were used, which were either treated with 3MeOBAPA or left untreated. Wild-type plants were grown in soil for 30 days, and then leaves of similar size and chlorophyll content were cut and immediately used for the treatment. At least 20 detached leaves were submerged in 1×MS medium supplemented with 10 μM 3MeOBAPA. Control samples were mock treated with DMSO only. After incubation for 6 h or 48 h in the dark, detached leaves were frozen in liquid nitrogen and used for RNA isolation; 150 mg of liquid nitrogen-ground material was used per isolation. cDNA sequencing libraries were prepared with the Illumina TruSeq Stranded mRNA LT Sample Prep Kit (Illumina, San Diego, Calif.) according to standard Illumina's protocols and sequenced on HiSeq 2500 apparatus (50 bp single-end reads).
To gain insight into the molecular mechanism of 3MeOBAPA action in Arabidopsis we decided to analyze the gene expression patterns via comparison of mock (DMSO)-treated plants with those obtained after i) short time treatment with 3MeOBAPA (6 h) and ii) long time treatment (48 h). This comparison leads to identification of group of genes with similar kinetic of expression and helps to understand possible mechanism of regulation. For data analysis, we performed ab initio method where sequencing reads were mapped to the reference genome.

Data set [4] relates to Triticum aestivum cv. Hereward detached leaf segments. Description: Senescence bioassay on detached wheat leaf segments (chlorophyll retention). The class given is in vivo. The settings on record: 96 h incubation in the dark at 25° C.; tested 10^−8 M to 10^−4 M. As for the experimental part: Seeds of winter wheat, Triticum aestivum cv. Hereward, were washed under running water for 24 hours and then sown on vermiculite soaked with Knop's solution. They were placed in the growth chamber at 25° C. with a 16/8 h light period at 50 μmol·m^−2·s^−1. After 7 days, the first leaf was fully developed and the second leaf had started to grow. A tip section of the first leaf, approximately 35 mm long, was removed from 5 seedlings and trimmed slightly to a combined weight of 100 mg. The basal ends of the five leaf tips were placed in the wells of a microtiter polystyrene plate containing 150 μL of the tested derivative solution each. The entire plate was inserted into a plastic box lined with paper tissues soaked in distilled water to prevent leaf sections from drying out. After 96 h incubation in the dark at 25° C., the leaves were removed and chlorophyll extracted by heating at 80° C. for 10 min in 5 mL of 80% ethanol (v/v). The sample volume was then restored to 5 mL by the addition of 80% ethanol (v/v). The absorbance of the extract was recorded at 665 nm. In addition, chlorophyll extracts from fresh leaves and leaf tips incubated in deionised water were measured. The results are means of five replicates and the entire test was repeated twice. […] The compounds to be tested were dissolved in dimethylsulfoxide (DMSO) and the solution brought up to 10^−3M with distilled water. […] The activity obtained for 10^−4 M of BAP was postulated as 100%.

Data on eight compounds can be found in patent publication US10550144B2, “6-aryl-9-glycosylpurines and use thereof” (UNIVERZITA PALACKEHO V OLOMOUCI, priority 2014, dated 2020).

On to `Cc1cccc(CNc2ncnc3c2ncn3C2OC(CO)C(O)C2O)c1C` (centres unmarked) [2,3-dimethylbenzyl], for which the “activity in killing Herpes simplex virus” value in data set [1] is given as “No effect”. The “activity in killing Vaccinia virus” value in data set [2] is on record as “No effect”.

`Cc1ccc(CNc2ncnc3c2ncn3C2OC(CO)C(O)C2O)c(C)c1` (centres unmarked) [2,4-dimethylbenzyl]: the “activity against Vaccinia virus, strain IHD” value in data set [2] is listed as “low activity”.

Regarding `Cc1ccc(C)c(CNc2ncnc3c2ncn3C2OC(CO)C(O)C2O)c1` (centres unmarked) [2,5-dimethylbenzyl], the “activity against Vaccinia virus, strain IHD” value in data set [2] was “low activity”.

For the compound `Cc1cccc(C)c1CNc1ncnc2c1ncn2[C@@H]1O[C@H](CO)[C@@H](O)[C@@H]1O` [2,6-dimethylbenzyl], the “activity in killing Herpes simplex virus” value in data set [1] is reported as “No effect”. For the same compound, in data set [2], the “activity in killing Vaccinia virus” value was “No effect”.

As to `Cc1ccccc1CNc1ncnc2c1ncn2[C@@H]1O[C@H](CO)[C@@H](O)[C@@H]1O` [2-methylbenzyl], in data set [1], the “activity in killing Herpes simplex virus” value is given as “No effect”. In addition, in data set [2], the “activity in killing Vaccinia virus” value is “No effect”.

On to `Cc1ccc(CNc2ncnc3c2ncn3[C@@H]2O[C@H](CO)[C@@H](O)[C@@H]2O)cc1C` [3,4-dimethylbenzyl], for which, in data set [1], the “activity in killing Herpes simplex virus” value was “No effect”. For the same compound, the “activity in killing Vaccinia virus” value in data set [2] is given as “No effect”.

As to `COc1cccc(CNc2ncnc3c2ncn3[C@@H]2O[C@H](CO)[C@@H](O)[C@@H]2O)c1` [6-(3-methoxybenzylamino)-9-β-D-arabinofuranosylpurine], in data set [3] (6 h), the “logFC AT1G10585 Basic helix-loop-helix (bHLH) DNA-binding superfamily protein” value is 0.38; the “logFC AT1G15540 2-oxoglutarate and Fe(II)-dependent oxygenase superfamily protein” value was 0.57; the “logFC AT1G19670 Chlorophyllase-1 (CLH1)” value stood at 0.63; the “logFC AT1G59860 17.6 kDa class I heat shock protein 1 (HSP17.6A)” value was determined as 0.48. In data set [3] (6 h), the “logFC AT1G76640 Calcium-binding EF-hand family protein (CML39)” value is 0.78, the “logFC AT2G02010 Glutamate decarboxylase 4 (GAD4)” value is reported as 0.55, the “logFC AT2G18150 Peroxidase 15 (PER15)” value stood at 0.68 and the “logFC AT2G21900 WRKY transcription factor 59 (WRKY59)” value turned out to be 0.54. Moreover, in data set [3] (6 h), the “logFC AT2G26695 Ran BP2/NZF zinc finger-like superfamily protein” value was determined as 0.50, the “logFC AT2G28210 Alpha carbonic anhydrase 2 (ATACA2)” value amounted to 0.85, the “logFC AT2G37430 Zinc finger protein ZAT11” value is given as 0.42 and the “logFC AT2G39030 L-ornithine N5-acetyltransferase (NATA1)” value was determined as 0.56. Further, in data set [3] (6 h), the “logFC AT2G47040 Pectin methylesterase Vanguard1 (VGD1)” value is 2.80, the “logFC AT3G05610 Pectinesterase/pectinesterase inhibitor 21 (PME21)” value came out at 1.80, the “logFC AT3G09340 Transmembrane amino acid transporter family protein” value was 0.55 and the “logFC AT3G11340 UDP-Glycosyltransferase superfamily protein” value was 0.51. Further, in data set [3] (6 h), the “logFC AT3G13400 SKU5 similar 13 (SKS13)” value stood at 0.82, the “logFC AT3G28153 Transposable element gene” value is reported as 0.92, the “logFC AT3G28155 ARM repeat superfamily protein” value is listed as 0.59 and the “logFC AT3G44830 Putative phospholipid:diacylglycerol acyltransferase 2 (PDAT2)” value stood at 0.38. Further, in data set [3] (6 h), the “logFC AT4G01390 TRAF-like family protein” value came out at 0.79; the “logFC AT4G21830 Peptide methionine sulfoxide reductase B7 (MSRB7)” value is given as 0.55; the “logFC AT4G22030 F-box domain, cyclin-like, F-box domain, Skp2-like protein” value is recorded as 0.41; the “logFC AT4G22620 SAUR-like auxin-responsive family protein” value turned out to be 0.46. Further, in data set [3] (6 h), the “logFC AT4G24350 Phosphorylase superfamily protein” value stood at 0.64, the “logFC AT4G26010 Peroxidase 44 (PER44)” value is 0.53, the “logFC AT4G31950 Cytochrome P450 82C3 (CYP82C3)” value is reported as 0.37 and the “logFC AT4G37780 Myb domain protein 87 (MYB87)” value is 0.41. Also, in data set [3] (6 h), the “logFC AT4G39320 Microtubule-associated protein-related” value came to 0.45, the “logFC AT5G03610 GDSL esterase/lipase” value is reported as 0.42, the “logFC AT5G52670 Copper transport family protein” value was 0.57 and the “logFC AT5G62720 Integral membrane HPP family protein” value is 0.44. The “logFC AT5G63270 RPM1-interacting protein 4 (RIN4) family protein” value in data set [3] (6 h) is listed as 0.56. In data set [3] (48 h), the “logFC AT2G26695 Ran BP2/NZF zinc finger-like superfamily protein” value was found to be 5.90, the “logFC AT3G11340 UDP-Glycosyltransferase superfamily protein” value worked out at 6.60 and the “logFC AT3G28153 Transposable element gene” value is on record as 5.70. Further, in data set [3] (long time treatment (48 h) vs mock (DMSO)), the “number of downregulated genes (P≤0.05)” value is recorded as 7 095 genes. In addition, the maximum effective concentration in data set [4] was 10^−4 mol · l^−1.

Regarding `OC[C@H]1O[C@@H](n2cnc3c(NCc4ccccc4)ncnc32)[C@@H](O)[C@@H]1O` [6-benzylamino-9-β-D-arabinofuranosylpurine], the “activity in killing Herpes simplex virus” value in data set [1] is listed as “No effect”. The “activity in killing Vaccinia virus” value in data set [2] was “No effect”.
